Results as given in PMC7979765, “trans-Translation inhibitors bind to a novel site on the ribosome and clear Neisseria gonorrhoeae in vivo” (Nature Communications, 2021).
In brackets after ≈: the same amount, converted by molar mass. Several values for one entry are separate records, joined by “and”; a condition that tells them apart may be missing. Identical values can stand only once.

Key:
[1] = Liver microsome stability, murine; format: in vitro ADME, mouse; settings: for Average MLMS t½ / MLMS t½: murine liver microsomes; for Average MLMS t½: average of replicates; for MLMS t½: individual replicates
Method: To examine potential for first-pass metabolism of analogs in the liver, the stability of analogs in the presence of liver microsome preparations (Eurofins Discovery for human, dog and rat; Xenotech for mouse) was measured using the method of Kuhnz, et al.[50]. for murine studies and Oback for the dog, human and rat studies. The amount of parent compound remaining after incubation with microsomes in the presence of NADPH over a 30 min time range was measured using a reverse-phase liquid chromatography/mass spectroscopy method that was customized for each compound. Half-lives were calculated using linear regression analysis of several time points.

HeLa cells [2] = assay: Mammalian cell cytotoxicity (CC50); format: cell-based, human; settings: one value per replicate
Neisseria gonorrhoeae = assay: MIC, microbroth dilution, G77L medium; format: cell-based; settings: Neisseria gonorrhoeae ATCC 49226; source data, individual replicates
[3] = Aqueous solubility (nephelometric); format: physicochemical; settings: for Solubility: single replicates
HeLa cells [4] = assay: Mammalian cell cytotoxicity (CC50); format: cell-based, human; settings: HeLa, replicates
Method: The half maximal cytotoxic concentration (CC50) of each compound against HeLa cells (ATCC CCL-2) was measured as previously described. […] The mean values for each biological replicate were averaged, and the CC50 was determined using a 4-parameter nonlinear curve fitting algorithm (GraphPad Prism). The average of the CC50s from two biological replicates was calculated and reported.

Escherichia coli = assay: microbe, parasite or virus in culture; format: cell-based; settings: E. coli KLE701 (ΔtolC::tet); source data, individual replicates
trans-translation = assay: microbe, parasite or virus in culture; format: cell-based, Escherichia coli; settings: Eco Luc reporter, one value per replicate; read-out: IC50
Method: To verify that MBX-4132 retains activity as an inhibitor of trans-translation, we measured its dose-dependent activity against the non-stop luciferase reporter assay strain E. coli SB75 ΔtolC::kan (pluc-trpAt) essentially as described, with modifications. Briefly, serial 1.5-fold dilutions of MBX-4132 in DMSO were transferred to 96-well assay plates (Costar 3195), followed by the addition of 50 µl of an overnight culture of SB75 ΔtolC::kan (pluc-trpAt) that had been diluted to a final OD600 of 0.4 with LB media supplemented with 100 µg ampicillin/ml and 1 mM IPTG. […] The assay plates were incubated at room temperature for 2 h, and 50 µl of BrightGlo (Promega) bioluminescence reagent was added to each well. After 10 min incubation, bioluminescence intensity was measured using an Envision multi-label plate reader (Perkin Elmer). Each assay comprised three technical replicates, and the experiment was repeated three times. The fold induction for each MBX-4132 treated sample as compared to the DMSO-only sample was calculated for each technical replicate, and the average and standard deviation of the three technical was calculated. The IC50 was determined using a 4-parameter nonlinear curve fitting algorithm (GraphPad Prism).

SMILES | Average MLMS t½ [1] [min] | MLMS t½ [1] | CC50 (HeLa cells [2]) [µM] | MIC (Neisseria gonorrhoeae) | Average solubility [3] [µM] | Solubility [3] | NORMALIZED DATA (Fraction DMSO Control) (HeLa cells [4]; [CMPD] 0.78125 µM) | NORMALIZED DATA (Fraction DMSO Control) (HeLa cells [4]; [CMPD] 1.5625 µM) | NORMALIZED DATA (Fraction DMSO Control) (HeLa cells [4]; [CMPD] 3.125 µM) | NORMALIZED DATA (Fraction DMSO Control) (HeLa cells [4]; [CMPD] 6.25 µM) | NORMALIZED DATA (Fraction DMSO Control) (HeLa cells [4]; [CMPD] 12.5 µM) | NORMALIZED DATA (Fraction DMSO Control) (HeLa cells [4]; [CMPD] 25 µM) | NORMALIZED DATA (Fraction DMSO Control) (HeLa cells [4]; [CMPD] 50 µM) | NORMALIZED DATA (Fraction DMSO Control) (HeLa cells [4]; [CMPD] 100 µM) | MIC (Escherichia coli) | further results
O=C(Nc1nnc(-c2ccc(F)cc2)o1)N1CCCC1 [MBX-4346] | 25 | 30.1 min and 20.5 min | ≥ 100 | 3.453 mg/L (≈ 12.5 µM) | >200 | >200 µM | 1.217 Fraction DMSO Control and 0.9631 Fraction DMSO Control and 1.029 Fraction DMSO Control | 1.148 Fraction DMSO Control and 0.9904 Fraction DMSO Control and 1.014 Fraction DMSO Control | 1.14 Fraction DMSO Control and 1.021 Fraction DMSO Control and 1.0883 Fraction DMSO Control | 1.122 Fraction DMSO Control and 0.9837 Fraction DMSO Control and 1.041 Fraction DMSO Control | 1.103 Fraction DMSO Control and 1.043 Fraction DMSO Control and 1.0247 Fraction DMSO Control | 1.033 Fraction DMSO Control and 0.9838 Fraction DMSO Control and 0.9917 Fraction DMSO Control | 0.972 Fraction DMSO Control and 0.8011 Fraction DMSO Control and 0.809 Fraction DMSO Control | 0.8767 Fraction DMSO Control and 0.7312 Fraction DMSO Control and 0.7411 Fraction DMSO Control | 27.6271 µg/mL (≈ 100 µM) | liver microsome stability (in words) [1]: limited
O=C(Nc1nnc(-c2ccc(F)cc2)o1)c1ccccc1 [MBXC-4227] |  |  | ≥ 100 |  |  |  | 0.9526 Fraction DMSO Control and 0.9482 Fraction DMSO Control and 0.9778 Fraction DMSO Control and 0.9357 Fraction DMSO Control and 0.9509 Fraction DMSO Control and 0.9608 Fraction DMSO Control | 0.9867 Fraction DMSO Control and 1.034 Fraction DMSO Control and 1.028 Fraction DMSO Control and 0.9667 Fraction DMSO Control and 0.9674 Fraction DMSO Control and 0.99 Fraction DMSO Control | 1.005 Fraction DMSO Control and 1.004 Fraction DMSO Control and 0.9736 Fraction DMSO Control and 0.9997 Fraction DMSO Control and 1.016 Fraction DMSO Control and 1.006 Fraction DMSO Control | 0.9644 Fraction DMSO Control and 0.9925 Fraction DMSO Control and 0.9938 Fraction DMSO Control and 0.9804 Fraction DMSO Control and 0.9921 Fraction DMSO Control and 0.9636 Fraction DMSO Control | 0.8938 Fraction DMSO Control and 0.856 Fraction DMSO Control and 0.8425 Fraction DMSO Control and 0.8596 Fraction DMSO Control and 0.8611 Fraction DMSO Control and 0.8593 Fraction DMSO Control | 0.9039 Fraction DMSO Control and 0.9304 Fraction DMSO Control and 0.9129 Fraction DMSO Control and 0.9236 Fraction DMSO Control and 0.9122 Fraction DMSO Control and 0.9801 Fraction DMSO Control | 0.7944 Fraction DMSO Control and 0.8334 Fraction DMSO Control and 0.7734 Fraction DMSO Control and 0.7887 Fraction DMSO Control and 0.7582 Fraction DMSO Control and 0.8061 Fraction DMSO Control | 0.6978 Fraction DMSO Control and 0.688 Fraction DMSO Control and 0.6756 Fraction DMSO Control and 0.7089 Fraction DMSO Control and 0.7199 Fraction DMSO Control and 0.7396 Fraction DMSO Control |  | 
O=C(Nc1nnc(-c2ccc(F)cc2)o1)N1CCCCCC1 [MBX-4700] | 19 | 16.8 min and 21.8 min | ≥ 100 | 0.951 mg/L and 0.4755 mg/L | 25 | 25 µM (≈ 7.61 µg/mL) | 1.19 Fraction DMSO Control and 0.9349 Fraction DMSO Control and 0.9879 Fraction DMSO Control | 1.113 Fraction DMSO Control and 0.9447 Fraction DMSO Control and 0.9899 Fraction DMSO Control | 1.151 Fraction DMSO Control and 1.008 Fraction DMSO Control and 1.078 Fraction DMSO Control | 0.9458 Fraction DMSO Control and 0.9081 Fraction DMSO Control and 0.9843 Fraction DMSO Control | 0.7537 Fraction DMSO Control and 0.7467 Fraction DMSO Control and 0.8509 Fraction DMSO Control | 0.8669 Fraction DMSO Control and 0.6852 Fraction DMSO Control and 0.8634 Fraction DMSO Control | 0.8891 Fraction DMSO Control and 0.7812 Fraction DMSO Control and 0.7745 Fraction DMSO Control | 0.8207 Fraction DMSO Control and 0.7165 Fraction DMSO Control and 0.6953 Fraction DMSO Control | 3.804 µg/mL and 7.608 µg/mL | 
CN(C(=O)c1ccc(Cl)cc1)c1nnc(-c2ccc(F)cc2)o1 [MBX-4076] |  |  | ≥ 100 | 2.073 mg/L (≈ 6.25 µM) | <3.1 | 3.1 µM and <3.1 µM (2×) |  |  |  |  |  |  |  |  | 8.293 µg/mL and 4.147 µg/mL and 2.073 µg/mL | […] (Fraction DMSO Control) (HeLa cells [4]; [CMPD] 0.78125 µM): 1.197 Fraction DMSO Control and 0.943 Fraction DMSO Control and 1.027 Fraction DMSO Control; […] (Fraction DMSO Control) (HeLa cells [4]; [CMPD] 1.5625 µM): 1.13 Fraction DMSO Control and 0.9796 Fraction DMSO Control and 1.003 Fraction DMSO Control; […] (Fraction DMSO Control) (HeLa cells [4]; [CMPD] 3.125 µM): 1.12 Fraction DMSO Control and 0.9889 Fraction DMSO Control and 1.051 Fraction DMSO Control; […] (Fraction DMSO Control) (HeLa cells [4]; [CMPD] 6.25 µM): 1.086 Fraction DMSO Control and 0.9295 Fraction DMSO Control and 1.003 Fraction DMSO Control; […] (Fraction DMSO Control) (HeLa cells [4]; [CMPD] 12.5 µM): 1.084 Fraction DMSO Control and 0.9742 Fraction DMSO Control and 1.016 Fraction DMSO Control; […] (Fraction DMSO Control) (HeLa cells [4]; [CMPD] 25 µM): 1.061 Fraction DMSO Control and 0.9434 Fraction DMSO Control and 0.9966 Fraction DMSO Control; […] (Fraction DMSO Control) (HeLa cells [4]; [CMPD] 50 µM): 1.042 Fraction DMSO Control and 0.8579 Fraction DMSO Control and 0.8811 Fraction DMSO Control; […] (Fraction DMSO Control) (HeLa cells [4]; [CMPD] 100 µM): 0.7388 Fraction DMSO Control and 0.6179 Fraction DMSO Control and 0.6661 Fraction DMSO Control
O=C(Nc1nnco1)c1ccc(Cl)cc1 [MBX-4367] | <5 | <5 min | ≥ 100 | 11.181 mg/L (≈ 50 µM) |  |  | 1.189 Fraction DMSO Control and 0.9321 Fraction DMSO Control and 1.018 Fraction DMSO Control | 1.137 Fraction DMSO Control and 0.9966 Fraction DMSO Control and 1.019 Fraction DMSO Control | 1.148 Fraction DMSO Control and 1.015 Fraction DMSO Control and 1.071 Fraction DMSO Control | 1.124 Fraction DMSO Control and 0.9955 Fraction DMSO Control and 1.053 Fraction DMSO Control | 1.13 Fraction DMSO Control and 1.055 Fraction DMSO Control and 1.044 Fraction DMSO Control | 1.072 Fraction DMSO Control and 0.9837 Fraction DMSO Control and 1.014 Fraction DMSO Control | 1.146 Fraction DMSO Control and 0.9608 Fraction DMSO Control and 0.9961 Fraction DMSO Control | 0.9043 Fraction DMSO Control and 0.7595 Fraction DMSO Control and 0.7474 Fraction DMSO Control | 22.362 µg/ml and >=22.362 µg/ml | IC50 (trans-translation): ≥ 25 µM
